{"source": "patent US12343335B2", "about": "“Pharmaceutical composition for treating multiple sclerosis on basis of AMPK inhibitory function and zinc homeostasis control function” (ZINCURE CORP., priority 2019, dated 2025)", "assay_type_in_all_cases": "in vivo, C57BL/6 female mice", "key": {"[1]": {"tested_on": "MOG35-55-induced experimental autoimmune encephalomyelitis (EAE)", "assay": "EAE clinical symptom assessment and incidence rate, 21 days after immunization", "details": "EAE mice, 1H10 intraperitoneally once a day, vs vehicle", "text": "The experimental animals used in the present invention are an 8-week-old, C57BL/6 female mice supplied from Dae Han BioLink, Co., Ltd. (Korea). These mice were bred in an environment controlled by temperature and humidity, and feed and water were fed freely.\nThe present inventors induced experimental autoimmune encephalomyelitis (EAE), an animal model of multiple sclerosis, by subcutaneously injecting Myelin oligodendrocyte glycoprotein 35-55 (MOG35-55) peptide antigen into C57BL/6 female mice (FIG. 1A). For this, MOG35-55 (Ana spec, USA) and Complete freund's adjuvant (CFA) were first prepared, and MOG35-55 (2 mg/ml) was dissolved in Phosphate buffered saline (lx PBS, Sigma), and then the 25 ml of CFA was prepared by dispending 25 ml of incomplete freund's adjuvant (IFA. Sigma) in a 50 ml conical tube. Then, in a fume hood, Mycobacterium tuberculosis H37Ra (100 mg; Difco, USA) was added to the IFA in order to prepare CFA and store it in the refrigerator after vortexing before use. […] After the immunization, the mice's body weight and clinical symptoms were measured every day, and the degree of EAE progression was evaluated based on specific clinical symptoms. […]\n(§1) EAE clinical symptom was evaluated based on previous studies (Jones et al., J. Neuroimmunol. 199(1-2): 83-93. 2008). […]"}, "[2]": {"tested_on": "MOG35-55-induced experimental autoimmune encephalomyelitis (EAE)", "assay": "Long-term EAE model, 45 days after initial immunization", "details": "intraperitoneally once a day", "method": "(§2) The present inventors induced experimental autoimmune encephalomyelitis (EAE), an animal model of multiple sclerosis, by subcutaneously injecting Myelin oligodendrocyte glycoprotein 35-55 (MOG35-55) peptide antigen into C57BL/6 female mice (FIG. 1A). For this, MOG35-55 (Ana spec, USA) and Complete freund's adjuvant (CFA) were first prepared, and MOG35-55 (2 mg/ml) was dissolved in Phosphate buffered saline (lx PBS, Sigma), and then the 25 ml of CFA was prepared by dispending 25 ml of incomplete freund's adjuvant (IFA. Sigma) in a 50 ml conical tube. Then, in a fume hood, Mycobacterium tuberculosis H37Ra (100 mg; Difco, USA) was added to the IFA in order to prepare CFA and store it in the refrigerator after vortexing before use. Thereafter, MOG35-55 and CFA containing Mycobacterium tuberculosis H37Ra was mixed in the same amount and injected into both flanks of the mice. And then Pertussis toxin (4 μg/ml, List Biological Laboratories, USA) was injected intraperitoneally on the day of immunization and on the second day after immunization. After the immunization, the mice's body weight and clinical symptoms were measured every day, and the degree of EAE progression was evaluated based on specific clinical symptoms. More details on this are provided below.\nas §1"}, "[3]": {"tested_on": "spinal cord of MOG35-55 immunized EAE mice", "assay": "Immunofluorescence staining of spinal cord of EAE mice", "method": "as §2\nOn the 21st day after EAE induction, the present inventors anesthetized mice with urethane and then perfused 4% paraformaldehyde into the heart to fix the spinal cord. After extracting the spinal cord, in order to examine demyelination of activity of microglia/macrophages the cell/macrophage activity of the tissue, immunofluorescence staining was performed with anti-myelin basic protein (MBP) and anti-F4/80 (Microglia/Macrophage) antibodies. In addition, anti-bodies against ionized calcium binding adapter molecule-1 (Iba-1) and anti-CD68 (Cluster of Differentiation 68) used as markers of microglia/macrophages to analyze the phenotype of strongly activated microglia/macrophages in the white matter part of the damaged spinal cord. Double immunofluorescence staining was performed using antibodies against CD8 and matrix metalloproteinase 9 (MMP-9) in order to investigate how AMP-activated protein kinase (AMPK) activity affects the survival of these cells. In addition, double immunofluorescence staining was performed using anti-CD8 and anti-phospho-AMPK antibodies to determine how AMP-activated protein kinase (AMPK) activity affects the survival of these cells in T cells infiltrating the spinal cord. In order to compare and analyze the activity of (MMP-9), immunofluorescence staining was performed using anti-MMP-9 antibodies. To examine the activity of astrocytes in the spinal cord, immunofluorescence staining was performed using anti-glial fibrillary acidic protein (GFAP) antibodies. To compare and analyze the expression of cytokines such as tumor necrosis factor (TNF) alpha and interferon (IFN) gamma, double immunofluorescence staining was performed using anti-TNF-alpha and anti-IFN gamma antibodies. In the same manner as the immunohistochemical method described above, the cryosections were reacted with 3% hydrogen peroxide at room temperature for 15 minutes to remove endogenous peroxidase, and then the primary antibodies, rat anti-MBP (1:200, Abcam, UK), anti-F4/80 (1:100, eBioscience, USA), goat anti-Iba1 (1:500, Abcam), anti-CD68 (1:100, Bio-Rad Laboratories, USA), anti-CD8 (1:50, BD Bioscience), anti-p-AMPK (1:100, Abcam), anti-MMP-9 (1:100, Abcam), anti-GFAP (1:500, Abcam), anti-IFN gamma (1:100, Invitrogen, USA), anti-TNF alpha (1:250, Abcam) antibodies were reacted for 15 hours at 4° C. Then, Alexa Fluor 488-, 594-, 647-conjugated secondary antibodies (1:250, Invitrogen, USA) suitable for the host of each primary antibodies were reacted at room temperature for 2 hours. […]"}, "[4]": {"tested_on": "spinal cord white matter of EAE mice", "assay": "Zinc staining (TSQ) of spinal cord of EAE mice", "details": "day 21 after EAE induction"}, "[5]": {"details": "spinal cord white matter, day 21 after EAE induction, compared to vehicle only"}, "[6]": {"details": "spinal cord, day 21 after EAE induction, vs vehicle"}}}
{"compound": "O=C1N=C(Nc2cccc(O)c2)S/C1=C\\c1c[nH]c2ccccc12", "note": "[1H10, (Z)-5-((1H-indol-3-yl)methylene)-2-((3-hydroxyphenyl)amino)thiazol-4(5H)-one]", "values": [{"measurement": "behavioral disorders (EAE clinical score)", "setting": "[1]", "result": "significantly inhibited"}, {"measurement": "incidence rate", "setting": "[1]", "result": "suppressed"}, {"measurement": "clinical symptoms", "setting": "[2]", "result": "significantly reduced"}, {"measurement": "incidence rate", "setting": "[2]", "result": "significantly reduced"}, {"measurement": "phosphorylation of AMPK in CD8+ T cells infiltrated into the spinal cord", "setting": "[3]; after EAE induction, vs vehicle", "result": "significantly decreased"}, {"measurement": "activity of MMP-9", "setting": "[3]; spinal cord white matter, EAE, compared to vehicle only", "result": "inhibited"}, {"measurement": "activity of astrocytes (GFAP)", "setting": "[3]; spinal cord white matter, day 21, vs vehicle", "result": "significantly inhibited"}, {"measurement": "expression of IFN gamma", "setting": "[3]; [5]", "result": "increased"}, {"measurement": "expression of TNF alpha", "setting": "[3]; [5]", "result": "decreased"}, {"measurement": "activated M1-type microglia/macrophages (Iba-1 and CD68 co-expression)", "setting": "[3]; spinal cord, after EAE induction, vs vehicle", "result": "significantly reduced"}, {"measurement": "EAE-induced demyelination (MBP staining)", "setting": "[3]; [6]", "result": "significantly decreased"}, {"measurement": "activity of microglia/macrophages (F4/80)", "setting": "[3]; [6]", "result": "significantly decreased"}, {"measurement": "patch-like TSQ abnormal staining (zinc accumulation)", "setting": "[4]", "result": "significantly reduced"}]}
